Data set [1] is described as follows: Solubility. Type of data set: physicochemical.
The subject of data set [2] is Bacillus subtilis KY 4273. The data set is described as follows: Antibacterial spectrum by agar dilution method (pH 7.0). The format is cell-based. From the text:
(§1) The antibacterial spectra of 7-deazaadenosine and 7-deazainosine against various microorganisms by agar dilution method (pH 7.0) are shown in the following Table 3.

In data set [3] the test system is Comamonas terrigena KY 4174. The data set is described as above. Type of data set: cell-based.
Source text: as §1

The subject of data set [4] is Pseudomonas alcaligenes KY 4656. Described as above. The format is cell-based. The note with it: Aquipseudomonas alcaligenes.
Source text: as §1

Data set [5] concerns Escherichia coli KY 4271. The description is as above. The format is cell-based.
Source text: as §1

Data set [6] concerns Mycobacterium phlei KY 3486. The data set is described as above. The note with it: Mycolicibacterium phlei. The format is cell-based.
Source text: as §1

The test system of data set [7] is Mycobacterium smegmatis KY 3848. The data set is described as above. The format is cell-based. The note with it: Mycolicibacterium smegmatis.
Source text: as §1

Broadly, the MIC is the smallest concentration in the dilution series that meets the test's criterion for growth inhibition.

SMILES strings stand for the structures. ≈ marks a conversion by molar mass, not a printed value. Like-named read-outs stand apart in the source and are kept apart here. Bounds are passed on as bounds.

`O=c1[nH]cnc2c1ccn2[C@@H]1O[C@H](CO)[C@@H](O)[C@H]1O` [7-Deazainosine, 7-deazainosine]: the Solubility entry in data set [1] (in hexane, benzene and ether) is “insoluble”; in data set [1] (in methanol) it was “poorly soluble”; in data set [1] (in water) it was “Soluble”. Besides, the MIC was > 100 µg/mL in data set [2] (KY4273, Bacillus subtilis KY 4273, agar dilution, pH 7.0, read-out: MIC); 40 µg/mL (≈ 150 µM) in data set [3] (KY4174, Comamonas terrigena KY 4174, agar dilution, pH 7.0, read-out: MIC); 40 µg/mL (≈ 150 µM) in data set [4] (KY4656, Pseudomonas alcaligenes KY 4656, agar dilution, pH 7.0, read-out: MIC); > 100 µg/mL in data set [5] (KY4271, Escherichia coli KY 4271, agar dilution, pH 7.0, read-out: MIC); < 0.045 µg/mL in data set [6] (KY3486, Mycobacterium phlei KY 3486, agar dilution, pH 7.0, read-out: MIC); > 100 µg/mL in data set [7] (KY3848, Mycobacterium smegmatis KY 3848, agar dilution, pH 7.0, read-out: MIC).
For the compound `Nc1ncnc2c1ccn2[C@@H]1O[C@H](CO)[C@@H](O)[C@H]1O` [7-Deazaadenosine, 7-deazaadenosine], the Solubility entry in data set [1] (in hexane, benzene and ether) is “insoluble”; in data set [1] (in methanol), “poorly soluble”; in data set [1] (in water) it was “Soluble”. Also, the minimal inhibitory concentration (MIC) in data set [2] (Bacillus subtilis, KY4273, pH 7) was 100 µg/mL (≈ 376 µM); in data set [3] (Comamonas terrigena, KY4174, pH 7), 10 µg/mL (≈ 37.6 µM); in data set [4] (KY4656, pH 7), 10 µg/mL (≈ 37.6 µM); in data set [5] (Escherichia coli, KY4271, pH 7) it was > 100 µg/mL; in data set [6] (KY3486, pH 7), < 0.045 µg/mL; in data set [7] (KY3848, pH 7) it was 20 µg/mL (≈ 75.1 µM).

The values above are taken from US4316957A, “Process for the production of 7-deazaadenosine and 7-deazainosine” (Abbott Laboratories, priority 1977, dated 1982).
